Results from PMC8406801, “Naringenin Inhibits Platelet Activation and Arterial Thrombosis Through Inhibition of Phosphoinositide 3-Kinase and Cyclic Nucleotide Signaling” (Frontiers in Pharmacology, 2021).
Values joined by “and” are separate entries in the source; they are usually repeats but may differ in a detail not shown here. Equal values may be shown once.

Tested on: GSK3β Ser9 phosphorylation
Experiment: Immunoblotting of phospho-GSK3β (Ser9) in ADP-stimulated washed platelets
Assay type: cell-based, rat
Settings: for p-GSK3β / t-GSK3β / p-GSK3β / t-GSK3β (Fold to ADP only): ADP 10 μmol/L, single replicates; for p-GSK3β / t-GSK3β: raw data
Method: For in vitro platelet aggregation, aliquots of washed platelets were preincubated with vehicle or various concentrations of naringenin for 5 min and stimulated with ADP (10 μmol/L) under stirring at 37°C for 5 min. For ex vivo platelet aggregation, PRP was incubated at 37°C for 5 min and stimulated with ADP (5 μmol/L) under stirring at 37 °C. The platelet aggregation was terminated by adding ethylenediaminetetraacetic acid (EDTA; 10 mM). Total protein was prepared using RIPA lysis buffer and protein content was determined by bicinchoninic acid (BCA) protein assay kit. Equal amounts of platelet proteins (30 μg) were separated on 10% SDS polyacrylamide gel electrophoresis (SDS-PAGE) and then transferred to poly vinylidene difluoride (PVDF) membranes and subjected to western blot. Blots were blocked with TBS-Tween 20 containing 5% BSA and probed with primary antibodies diluted in blocking solution at 4°C overnight followed by incubation with the corresponding HRP secondary antibodies. The protein bands were visualized using enhanced chemiluminescence (ECL).
FIGURE 4 Naringenin inhibits PI3K-mediated signaling in ADP-induced platelets. Washed rat platelets were preincubated without or with naringenin at 37°C for 5 min, and then stimulated with ADP (10 μmol/L) under stirring for 5 min. Platelet proteins were then extracted and analyzed by immunoblotting using PI3Kp110β antibody (A) and phospho-specific antibodies such as Akt^Ser473 (B), Akt^Thr308 (C), ERK1/2^Thr202/Tyr204 (D) and GSK3β^Ser9 (E). Total level of GAPDH was measured on each sample as a loading control. The blots shown are representative of three separate experiments. The relative protein expression levels were quantified by ImageJ 1.47v software. The level of relative protein expression obtained with vehicle control (0 μM) was taken as 1. R represents the level of relative protein expression in resting platelets. Data are expressed as means ± SD (n = 3). *p < 0.05, **p < 0.01, ***p < 0.001 compared with the vehicle control group.

O=C1C[C@@H](c2ccc(O)cc2)Oc2cc(O)cc(O)c21 [Naringenin] was tested, and the “p-GSK3β / t-GSK3β” value (100 μM) was 0.3609 and 0.3982 and 0.3384, the “p-GSK3β / t-GSK3β (Fold to ADP only)” value (100 μM) was 0.5893 Fold to ADP only and 0.6502 Fold to ADP only and 0.5525 Fold to ADP only and the “p-GSK3β / t-GSK3β” value (200 μM) was 0.4301 and 0.3431 and 0.4790. For the same compound, the “p-GSK3β / t-GSK3β (Fold to ADP only)” value (200 μM) was 0.7022 Fold to ADP only and 0.5603 Fold to ADP only and 0.7821 Fold to ADP only, the “p-GSK3β / t-GSK3β” value (400 μM) was 0.3379 and 0.5076 and 0.5137 and the “p-GSK3β / t-GSK3β (Fold to ADP only)” value (400 μM) was 0.5517 Fold to ADP only and 0.8288 Fold to ADP only and 0.8388 Fold to ADP only. For the same compound, the “p-GSK3β / t-GSK3β” value (800 μM) was 0.4062 and 0.4495 and 0.5157, the “p-GSK3β / t-GSK3β (Fold to ADP only)” value (800 μM) was 0.6632 Fold to ADP only and 0.7339 Fold to ADP only and 0.8420 Fold to ADP only and the “influence on GSK3β phosphorylation” value (ADP-induced platelets) was “no influence”.
